Where “and” joins values, the source holds several entries; their conditions need not be identical. Identical values can stand only once. Like-named read-outs stand apart in the source and are kept apart here.
Experiments:
[1] = target: T1, house fly thoracic muscle RyR (Musca domestica, UniProt A0A9J7DBA3); set-up: method as in PMID 22856329; settings: read-out: Stimulation of [3H]Ry binding (EC50), reported value; cited from earlier work
Plutella larvae = assay: Insecticidal activity, leaf-dip bioassay; settings: fourth instar larvae, cabbage leaf-dip, mortality after 96 h
[2] = target: T1, house fly thoracic muscle RyR; set-up: method as in PMID 22856329; settings: read-out: Inhibition of [3H]Chlo binding (IC50), reported value; cited from earlier work
[3] = target: T1, house fly thoracic muscle RyR; assay: Stimulation of [3H]Ry binding in Musca RyR radioligand assay; settings: Musca muscle membrane, 1 nM [3H]Ry, 2 h at 37 °C
Experimental: (§1) [^3H]Ry (95 Ci/mmol, Perkin-Elmer Life Sciences, Boston, MA, USA) and [^3H]Chlo (78 Ci/mmol) were used in RyR binding assays with house fly thorax muscle membranes as reported earlier. Adults emerging from pupae obtained from Benzon Research (Carlisle, PA, USA) were used to collect the thoraces for membrane preparation. The following two buffers were used: (A) 10 μM phenylmethanesulfonyl fluoride, 0.8% bovine serum albumin, and 303 mM sucrose in 20 mM Tris-maleate, pH 7.0; and (B) 0.8 mM CaCl2, 2 mM ATP·Mg^2+ salt, and 1.5 M KCl in 10 mM Hepes, pH 7.4. Incubation mixtures were prepared by sequential addition to culture tubes of 200 μL of buffer B, 200 μL of buffer A containing thorax muscle membranes (200 μg protein) and then ethanol (5 μL) containing [^3H]Ry or [^3H]Chlo to give a final radioligand concentration of 1 nM. Finally, test compounds were added in 5 μL ethanol to give the specified concentrations of Fluor-Cl and Fluor-CN. Following incubation for 2 h at 37 °C, the mixtures were filtered through GF/B filters (Whatman, presoaked in ice-cold washing buffer) immediately after dilution with 5 mL of ice-cold washing buffer (150 mM KCl, 10 mM Hepes, pH 7.4). Each assay tube was further rinsed twice with 5 mL of ice-cold washing buffer, and the rinses were passed through the same filter. […] Binding data were analyzed and plotted by GraphPad Prism 5.0. […]

[4] = target: T1, house fly thoracic muscle RyR; assay: Inhibition of [3H]Chlo binding in Musca RyR radioligand assay; settings: Musca muscle membrane, 1 nM [3H]Chlo, 2 h at 37 °C
Experimental: as §1

Compound	EC50 [1] [nM]	LC50 (95%CL) (Plutella larvae)	IC50 [2] [nM]	EC50 [3]	IC50 [4]
CNC(=O)c1cc(Cl)cc(C)c1NC(=O)c1cc(Br)nn1-c1ncccc1Cl [Chlo, chlorantraniliprole]	3 to 15	0.033(0.006–0.059) ppm	6 to 14		
CNC(=O)c1cc(C#N)cc(C)c1NC(=O)c1cc(Br)nn1-c1ncccc1Cl [Cyan, cyantraniliprole]	3 to 15	0.061(0.035–0.086) ppm	6 to 14		
Cc1cc(C(F)(C(F)(F)F)C(F)(F)F)ccc1NC(=O)c1cccc(I)c1C(=O)NC(C)(C)CS(C)(=O)=O [Flu, flubendiamide, reference compound]		0.056(0.037–0.068) ppm			
Cc1cc(C#N)cc(C(=O)NCc2cn(-c3cc4ccc(O)cc4oc3=O)nn2)c1NC(=O)c1cc(Br)nn1-c1ncccc1Cl [Fluor-CN, 3-Bromo-1-(3-chloropyridin-2-yl)-N-(4-cyano-2-((1-(7-hydroxy-2-oxo-2H-chromen-3-yl)-1H-1,2,3-triazol-4-yl)methylcarbamoyl)-6-methylphenyl)-1H-pyrazole-5-carboxamide]		7.57(4.57–11.77) ppm		5 to 7 nM and 5 nM	34 to 39 nM and 39 nM
C#CCNC(=O)c1cc(C#N)cc(C)c1NC(=O)c1cc(Br)nn1-c1ncccc1Cl [Prop-CN, 3-bromo-N-(4-cyano-2-methyl-6-(prop 2-ynylcarbamoyl)phenyl)-1-(3-chloropyridin-2-yl)-1H-pyrazole-5-carboxamide]		0.34(0.24–0.43) ppm			
C#CCNC(=O)c1cc(Cl)cc(C)c1NC(=O)c1cc(Br)nn1-c1ncccc1Cl [Prop-Cl, 3-Bromo-N-(4-chloro-2-methyl-6-(prop-2-ynylcarbamoyl)phenyl)-1-(3-chloropyridin-2-yl)-1H-pyrazole-5-carboxamide]		0.080(0.024–0.152) ppm			

From article PMC6270845, “Fluorescent Probes for Insect Ryanodine Receptors: Candidate Anthranilic Diamides” (Molecules, 2014)
